Data taken from patent US20080171721A1, “Halogenated alkyl di- and trisaccharides, pharmaceutical formulations, diagnostic kits and methods of treatment” (priority 2007, published 2008).

What was measured:
S. aureus = experiment: Antimicrobial testing, time-kill with plate count; format: cell-based, Staphylococcus aureus; conditions: antimicrobial if greater than 5 log reduction
Protocol: (§1) The preferred embodiment was tested for antimicrobial activity using the following procedure.
(§2) A 1% solution of Compound 3 was prepared in DPBS (Dulbecco's phosphate buffered saline). A 25 ml mixture of the 1% Compound 3 and PBS (phosphate buffered saline, pH 7.2 was prepared by mixing 5 ml of the 1% Compound 3 solution and 20 ml of the PBS.
(§3) A 10 ml aliquot of the above mixture was placed into each of two sterile test tubes. One test tube was inoculated with 0.1 ml of S. aureus and the other with 0.1 ml of P. aeruginosa, such that there was a final concentration of 10^6 colony-forming units (CFU)/0.1 mls.
(§4) A various time points, 1.0 ml of each inoculated test sample were removed, diluted 10× with 0.45% saline and plated on trypticase soy agar (TSA) plates.
(§5) The plates were incubated at 30-35° C. for not less than 24 hours. Concentration of CFU in the samples taken at each time point were enumerated by standard methods. The log reduction was calculated for each time period and organism. The log reduction was calculated using the formula: Log reduction=Log inoculums verification−sample log recovery.

P. aeruginosa = experiment: Antimicrobial testing, time-kill with plate count; format: cell-based, Pseudomonas aeruginosa; conditions: antimicrobial if greater than 5 log reduction
Protocol: as §1, §2, §3, §4, §5

## CCCCCCCCCCCC(=O)OCC1O[C@H](O[C@@]2(CCl)O[C@H](CCl)C(O)C2O)C(O)C(O)[C@H]1Cl (stereo in doubt) [Compound 3, 1′,6′-Dichloro-1′,6′-dideoxy-β-D-fructofuranosyl-4-chloro-4-deoxy-6-O-monododecanoate-α-galactopyranoside]
S. aureus
  antimicrobial effect: has antimicrobial effect against S. aureus
P. aeruginosa
  antimicrobial effect: not P. aeruginosa
